Measurements taken from patent US9145386B2, “SOD-imitating metal complexes” (UNIVERSITAT DE VALENCIA, priority 2009, dated 2015).

How the values were obtained:
[1] = Potentiometric determination of protonation constants; format: physicochemical; conditions: NaClO4 0.15 mol·dm^−3, 298.1±0.1 K; for logarithm of protonation constant, L + H = HL: standard deviation of last figure in brackets
Experimental: (§1) Potentiometric measurements were performed to determine the acid-base behaviour of the new family of compounds, yielding the overall protonation constants required for the subsequent study on the formation of metal complexes with Cu(II), Fe(II) and Mn(II).
The numbers in brackets indicate the standard deviation of the last significant figure. ^a) The overall basicity constant is β=ΣKHjL

[2] = Stability constants for the formation of metal complexes with Mn2+ (potentiometry); format: physicochemical
Experimental: as §1
The evaporation was in fact carried out in flasks, in contact with atmospheric oxygen.

| SMILES | Log β (overall basicity constant) [1] | logarithm of protonation constant, H2L + H = H3L [1] | logarithm of protonation constant, H3L + H = H4L [1] | logarithm of protonation constant, HL + H = H2L [1] | logarithm of protonation constant, L + H = HL [1] | stability constant (log K), Mn + L = MnL [2] | stability constant, Mn + L + H2O = MnL(OH) + H^+ [2] | stability constant, MnL + OH = MnL(OH) [2] | stability constant, Mn + L + H = HMnL [2] | stability constant, MnL + H = HMnL [2] |
| --- | --- | --- | --- | --- | --- | --- | --- | --- | --- | --- |
| c1cc2nc(c1)CNCCN(CCNCc1ccnc3ccccc13)CCNC2 [Compound 1] | 27.00(1) | 5.94(1) | 2.82(1) | 8.31(1) | 9.93(1) | 8.91(1) | −1.36(1) | 3.45(1) | – | – |
| c1cc2nc(c1)CNCCN(CCNCc1ccc3ccccc3n1)CCNC2 [Compound 2] | 24.66(2) | 6.23(1) | – | 8.40(1) | 10.03(1) | 11.08(1) | – | – | 16.23(6) | 5.15(2) |
